Measured values taken from patent publication US20190255086A1, “Compositions and Methods for Treating an Infection” (CMPD Licensing, LLC, priority 2015, published 2019).

Assays:
[1] = system: Coccidioides immitis; conditions: expected efficacy
[2] = system: Aspergillus fumigatus; experiment: Expected efficacy of anti-fungal agents against various fungi (Table 4)
[3] = system: Blastomyces dermatitidis; experiment: as above
[4] = system: Trichophyton rubrum; experiment: as above
[5] = system: Cryptococcus neoformans; experiment: as above
[6] = system: Trichophyton mentagrophytes; experiment: as above
[7] = system: Candida species; experiment: as above
[8] = system: Histoplasma duboisii; conditions: expected efficacy
[9] = system: Sporothrix schenckii; experiment: Expected efficacy of anti-fungal agents against various fungi (Table 4)
[10] = system: Aspergillus niger; experiment: as above
[11] = system: Leishmania donovani; experiment: as above
[12] = system: Aspergillus terreus; experiment: as above

Measured: Efficacy of various antifungal agents

CCC(C)n1ncn(-c2ccc(N3CCN(c4ccc(OC[C@H]5CO[C@](Cn6cncn6)(c6ccc(Cl)cc6Cl)O5)cc4)CC3)cc2)c1=O (mixture of isomers) [Itraconazole]
yes: [1] | [2] | [3] | [4] | [5] | [6] | [7] | [8] | [9]

C[C@@H]1[C@H](O)[C@@H](C)/C=C/C=C/C=C/C=C/C=C/C=C/C=C/[C@H](O[C@@H]2O[C@H](C)[C@@H](O)[C@H](N)[C@@H]2O)C[C@@H]2O[C@](O)(C[C@@H](O)C[C@@H](O)[C@H](O)CC[C@@H](O)C[C@@H](O)CC(=O)O[C@H]1C)C[C@H](O)[C@H]2C(=O)O [Amphotericin]
yes: [1] | [2] | [3] | [10] | [11] | [5] | [7] | [12]
